From patent US20170260121A1, “COMPOUND, PROCESS FOR PREPARING A COMPOUND, PHARMACEUTICAL COMPOSITION, USE OF A COMPOUND AND METHOD FOR TREATING CANCER” (FUNDAÇÃO OSWALDO CRUZ, priority 2014, published 2017)

Legend:
[1] = system: K562 (leukemia) cells; experiment: anti-proliferative assay (MTT, 48 h); type: cell-based, human; settings: K562, 0.01 to 100 μM
Method: (§1) Example 6 was carried out to determine the biological activity of the following samples: (S)-perillyl alcohol, (S)-AP, (R)-AP, (S)-NAP, and (R)-NAP on human tumor lineages. (S)-perillyl alcohol was tested in combination with the samples of sodium acids and salts, because it is a substance which is considered to have some established clinical efficacy.
(§2) Samples (R)-AP, (S)-AP, (R)-NAP, (S)-NAP and perillyl alcohol (POH) were received and solubilized in DMSO or saline solution (NaCl 0.9%) and conserved at −20° C. until the day of the experiment, when they were immediately diluted before use, in a cell culture medium, DMEM, enriched with 10% fetal bovine serum, […] penicillin, and 0.1 mg/ml streptomycin, and 0.05 mg/ml gentamicin (DMEM complete medium). The experiments were carried out according to the Standard Operational Procedure of the Laboratory of Molecular Pharmacology FARMO1003 version 00, which are summarized below.
(§3) K562 (leukemia), LUCENA (multi-drug resistant leukemia), SKMEL28 (melanoma) and MCF7 (breast tumor) cells were cultivated on a DEM complete culture medium, and kept in log growth phase. Twenty-four hours before the treatment with the samples, 100 μl of the cell suspension (5×10^4 cells/ml) were added to wells of 96-well plates and kept in the oven at 5% CO2 atmosphere, at 37° C.
(§4) The treatment for each of the five samples was carried out in response dosage (0.01 to 100 μM; 5 spots), each concentration in triplicate.
(§5) After 48 hours, thiazolyl blue was added (MTT; SIGMA code M5655) and the plate was kept in the oven with CO2 for 4 hours. After the incubation time, the supernatant was aspirated and formazan crystals, formed by the cellular activity, were solubilized with isopropyl alcohol and, after full solubilization, the optical density determination was carried out in a microplate reader at 570 nm (VictorX5; Perkin Elmer USA).

[2] = system: SKMEL28 (melanoma) cells; experiment: anti-proliferative assay (MTT, 48 h); type: cell-based, human; settings: SKMEL, 0.01 to 100 μM
Method: as §1, §2, §3, §4, §5

[3] = system: Lucena (multi-drug resistant leukemia) cells; experiment: anti-proliferative assay (MTT, 48 h); type: cell-based, human; settings: 0.01 to 100 μM
Method: as §1, §2, §3, §4, §5

[4] = system: MCF7 (breast tumor) cells; experiment: anti-proliferative assay (MTT, 48 h); type: cell-based, human; settings: MCF7, 0.01 to 100 μM
Method: as §1, §2, §3, §4, §5

[5] = system: human colon adenocarcinoma (Caco-2); experiment: MTT viability test, (S)-NAP 24 h; type: cell-based; settings: Caco-2, NAP dosage 1.5-5.0 mM
Method: (§6) The effect of (S)-NAP on the viability of human colon adenocarcinoma cells with increasing degrees of malignancy was first evaluated. Caco2, HT-29, HCT-116 and a normal control cell MDCK, a […] kidney cell. Proliferation assays
(§7) (i) Cell cultures: Lineages of human colon adenocarcinoma cells with decreasing malignancy levels, HCT 116, HT-29 and Caco-2, were used. As a control of the epithelial cell model, a normal cell line of drainage epithelium (IEC-6) was used. These cells were cultured according to the ATCC specifications and maintained in a DMEM medium in an oven, with 5% CO2, at 37° C. until reaching semiconfluence.
(§8) (ii) Treatments: Initially, concentrations of sodium perylate (1.0, 1.8, 2.6, 3.4, 4.2 and 5.0 mM) were tested to determine the IC50 of the drug. Monolayers of semiconfluent cells were serum-depleted for 24 hours before treatment with (S)-NAP and during the treatment for 24 h.
(§9) (iii) Viability test: The lineages were plated in 96-well flat-bottom plates with DMEM culture medium containing the different (S)-NAP concentrations described above. Cell incubation with (S)-NAP was conducted for 24 h, at 37° C., upon which, the plates were incubated for 2 h with MTT [3-(4,5-dimethylthiazol-2-yl)-2,5diphenyltetrazolium bromide] 2.5 mg/ml, at a final concentration of 250 μg/ml. The plates were centrifuged at 1200 RPM, at 4° C., for 5 minutes, poured to remove the supernatant, since the crystals had deposited inside the cells. Formazan crystals were dissolved into […] of DMSO and homogenized manually and through the device. Absorbances were determined at 538 nm in a plate reader (Spectra Max 190). Controls of 100% viability, with no drug addition, and of 0% viability using formaldehyde were carried out simultaneously with the experiment.

[6] = system: human colon adenocarcinoma (HT-29); experiment: MTT viability test, (S)-NAP 24 h; type: cell-based; settings: HT-29, NAP dosage 1.5-5.0 mM, concentration limited by NAP solubility
Method: as §6, §7, §8, §9

[7] = system: human colon adenocarcinoma (HCT-116); experiment: MTT viability test, (S)-NAP 24 h; type: cell-based; settings: HCT-116, NAP dosage 1.0-5.0 mM
Method: as §6, §7, §8, §9

[8] = solubility in an aqueous medium; type: physicochemical; settings: relative to POH and PA

C=C(C)C1CC=C(C(=O)[O-])CC1.[Na+] (stereo in doubt) [(R)-NAP, sodium perylate]
IC50 [1]: 1.24 µM
inhibition (in words) [2]: no inhibition making IC50 calculation necessary
IC50 [3]: 0.013 µM

C=C(C)[C@H]1CC=C(C(=O)O)CC1 [(R)-PA, perillic acid]
inhibition (in words) [4]: no inhibition making IC50 calculation necessary

C=C(C)[C@@H]1CC=C(C(=O)[O-])CC1.[Na+] [(S)-NAP, sodium perylate]
inhibition (in words) [4]: no inhibition making IC50 calculation necessary
Result (viability) [5]: Refractory
IC50 [6]: > 5000 µM
IC50 [7]: > 3400 µM

C=C(C)[C@@H]1CC=C(C(=O)O)CC1 [(S)-PA, perillic acid, reference compound]
inhibition (in words) [4]: no inhibition making IC50 calculation necessary
inhibition (in words) [2]: no inhibition making IC50 calculation necessary

C=C(C)C1CC=C(C(=O)[O-])CC1.[Na+] (stereo not drawn) [NAP, sodium perylate]
solubility in an aqueous medium compared with POH and PA [8]: higher

C=C(C)[C@@H]1CC=C(CO)CC1 [POH, perillyl alcohol]
inhibition (in words) [4]: no inhibition making IC50 calculation necessary
